Measured values from US5278324A, “Water soluble derivatives of taxol” (Virginia Tech Intellectual Properties, Inc., priority 1991, dated 1994).
Counter-ions that a name gives are not always drawn.

What was measured:
[1] = Deutsch et al. 1989; cited from earlier work
[2] = cited from earlier work
cell culture = conditions: Magri and Kingston 1988; cited from earlier work
[3] = in vivo conditions; cited from earlier work
[4] = Magri and Kingston 1988; cited from earlier work
[5] = cited from earlier work; remark: listed apart in the source
[6] = Magri and Kingston; cited from earlier work
[7] = Water solubility by partition between 1-octanol and water, relative to taxol; conditions: for times more water soluble than taxol / solubilities greater than taxol: 1-octanol/water partition; for water solubility (in words): versus taxol or the other derivatives; for solubilities greater than taxol: Table 9 discussion
Method: Water solubilities for all compounds were determined by the partition coefficient between 1-octanol and water. Octanol saturated with distilled water and distilled water saturated with octanol were used for the solubility determinations.
Taxol's water solubility was determined by dissolving 1.6 mg of taxol in 10 ml of distilled water saturated with 1-octanol in a 60 ml separatory funnel, and 10 ml of 1-octanol saturated with distilled water was then added. The funnel was shaken, and allowed to stand for about 30 minutes until the organic and aqueous phases separated. UV absorption measurements at 228 nm were made of the aqueous layer and/or octanol layer, with the octanol layer being diluted 5 times before measurement.

[8] = Biological testing of 2'-[(3-sulfo-1-oxopropyl)oxy]taxol sodium salt
P-388 = conditions: compared with taxol; cited from earlier work
[9] = Aqueous solubility (statements in words); type: physicochemical; conditions: versus the neutral form
[10] = Stability of 2'-γ-aminobutyryltaxol formate (proton NMR and TLC); type: physicochemical; conditions: after a few hours
Text: 2'-γ-aminobutyryltaxol formate was synthesized by coupling taxol with N-carbobenzyloxy (CBZ) -γ-aminobutyric acid followed by deprotection of the amine. Taxol was reacted with N-CBZ-γ- aminobutyric acid using dicyclohexyl-carbodiimide (DCC) as the coupling agent. The resulting 2'-NCBZ-γ-aminobutyryl taxol was produced in 75% yield after purification via preparative TLC with silica gel and 3/2 hexane/ethyl acetate. […] Deprotection of the 2'-N-CBZ-γ-aminobutyryltaxol was effected using 5% Pd/C as a catalyst and formic acid as a hydrogen source. […] NMR confirmed the synthesis of the 2'-γ-aminobutyryl taxol formate. […] This instability precluded further consideration of 2'-γ-amino-butyryltaxol formate as a prodrug form of taxol.

[11] = tested on: acute leukemia and melanoma; conditions: preliminary studies; cited from earlier work
[12] = cited from earlier work; remark: listed apart in the source
several tumor systems = conditions: background statement; cited from earlier work
[13] = tested on: drug-refractory ovarian cancer; conditions: McGuire et al. 1989; cited from earlier work
tubulin = conditions: cited from earlier work

Structure (SMILES): CC(=O)O[C@H]1C(=O)[C@@]2(C)[C@H]([C@H](OC(=O)c3ccccc3)[C@]3(O)C[C@H](OC(=O)[C@H](OC(=O)CCCC(=O)NCCCN(C)C)[C@@H](NC(=O)c4ccccc4)c4ccccc4)C(C)=C1C3(C)C)[C@]1(OC(C)=O)CO[C@@H]1C[C@@H]2O
- antitumor activity [1]: good solubility and bioactivity
- solubility ([2]; Deutsch et al. 1989): good solubility

Structure (SMILES): CC(=O)O[C@H]1C(=O)[C@]2(C)[C@@H](OC(C)=O)C[C@H]3OC[C@@]3(OC(C)=O)[C@H]2[C@H](OC(=O)c2ccccc2)[C@]2(O)C[C@H](OC(=O)[C@H](OC(C)=O)[C@@H](NC(=O)c3ccccc3)c3ccccc3)C(C)=C1C2(C)C [2',7-diacetyltaxol]
- activity in a cell culture bioassay (cell culture): both showed activity in a cell culture bioassay
- hydrolysis of acyl substituents at the 2' position [3]: readily hydrolyzed under in vivo conditions

Structure (SMILES): CC(=O)O[C@H]1C(=O)[C@@]2(C)[C@H]([C@H](OC(=O)c3ccccc3)[C@]3(O)C[C@H](OC(=O)[C@H](O[Si](C)(C)C(C)(C)C)[C@@H](NC(=O)c4ccccc4)c4ccccc4)C(C)=C1C3(C)C)[C@]1(OC(C)=O)CO[C@@H]1C[C@@H]2O [2'-(t-butyldimethylsilyl) taxol]
- biological activity [4]: essentially inactive

Structure (SMILES): CC(=O)O[C@H]1C(=O)[C@@]2(C)[C@H]([C@H](OC(=O)c3ccccc3)[C@]3(O)C[C@H](OC(=O)[C@H](OC(=O)CCN)[C@@H](NC(=O)c4ccccc4)c4ccccc4)C(C)=C1C3(C)C)[C@]1(OC(C)=O)CO[C@@H]1C[C@@H]2O [2'-(β-alanyl)taxol]
- stability ([5]; Magri and Kingston): unstable
- activity in vivo and in vitro [6]: active in vivo and in vitro

Structure (SMILES): CC(=O)O[C@H]1C(=O)[C@@]2(C)[C@H]([C@H](OC(=O)c3ccccc3)[C@]3(O)C[C@H](OC(=O)[C@H](OC(=O)CCS(=O)(=O)O)[C@@H](NC(=O)c4ccccc4)c4ccccc4)C(C)=C1C3(C)C)[C@]1(OC(C)=O)CO[C@@H]1C[C@@H]2O [2'-[(3-sulfo-1-oxopropyl)oxy]taxol sodium salt]
- times more water soluble than taxol [7]: 210 times
- water solubility (in words) ([7]; listed as 2'-[(3-sulfo-l- oxopropyl)oxy]taxol sodium salt, sodium salt): improved water solubility
- water solubility (in words) ([7]; listed as 2'-acryloyltaxol derivative, sodium salt): highest water solubility
- bioactivity [8]: bioactive

Structure (SMILES): CC(=O)O[C@H]1C(=O)[C@@]2(C)[C@H]([C@H](OC(=O)c3ccccc3)[C@]3(O)C[C@H](OC(=O)[C@H](OC(C)=O)[C@@H](NC(=O)c4ccccc4)c4ccccc4)C(C)=C1C3(C)C)[C@]1(OC(C)=O)CO[C@@H]1C[C@@H]2O [2'-acetyltaxol]
- activity in a cell culture bioassay (cell culture): both showed activity in a cell culture bioassay
- hydrolysis of acyl substituents at the 2' position [3]: readily hydrolyzed under in vivo conditions

Structure (SMILES): CC(=O)O[C@H]1C(=O)[C@@]2(C)[C@H]([C@H](OC(=O)c3ccccc3)[C@]3(O)C[C@H](OC(=O)[C@H](OC(=O)CCC(=O)O)[C@@H](NC(=O)c4ccccc4)c4ccccc4)C(C)=C1C3(C)C)[C@]1(OC(C)=O)CO[C@@H]1C[C@@H]2O [2'-succinyltaxol]
- P-388 in vivo activity (P-388): much diminished P-388 in vivo activity as compared with taxol

Structure (SMILES): CC(=O)O[C@H]1C(=O)[C@@]2(C)[C@H]([C@H](OC(=O)c3ccccc3)[C@]3(O)C[C@H](OC(=O)[C@H](OC(=O)CCC(=O)NCCS(=O)(=O)O)[C@@H](NC(=O)c4ccccc4)c4ccccc4)C(C)=C1C3(C)C)[C@]1(OC(C)=O)CO[C@@H]1C[C@@H]2O [2'-{[4-((2-sulfoethyl)amino)-1,4-dioxo-butyl]oxy}taxol sodium salt]
- times more water soluble than taxol [7]: 191 times
- solubilities greater than taxol [7]: more than 100 times
- water solubility (in words) [7]: much greater water solubility than the 3-amino-1-sulfopropionic acid derivative of 2'-succinyltaxol

Structure (SMILES): CC(=O)O[C@H]1C(=O)[C@@]2(C)[C@H]([C@H](OC(=O)c3ccccc3)[C@]3(O)C[C@H](OC(=O)[C@H](OC(=O)CCC(=O)NCCCS(=O)(=O)O)[C@@H](NC(=O)c4ccccc4)c4ccccc4)C(C)=C1C3(C)C)[C@]1(OC(C)=O)CO[C@@H]1C[C@@H]2O [2'-{[4-((3-sulfopropyl)-amino)-1,4-dioxobutyl]oxy}taxol sodium salt]
- times more water soluble than taxol [7]: 118 times
- solubilities greater than taxol [7]: more than 100 times

Structure (SMILES): CC(=O)O[C@H]1C(=O)[C@@]2(C)[C@H]([C@H](OC(=O)c3ccccc3)[C@]3(O)C[C@H](OC(=O)[C@H](OC(=O)CCCN)[C@@H](NC(=O)c4ccccc4)c4ccccc4)C(C)=C1C3(C)C)[C@]1(OC(C)=O)CO[C@@H]1C[C@@H]2O [2'-γ-aminobutyryltaxol formate, 2'-γ-amino-butyryltaxol formate]
- water solubility of formate salt [9]: more water soluble than the neutral form
- stability (proton NMR and TLC) [10]: decomposed back to taxol
- stability in methanol solution ([10]; methanol solution): unstable in methanol solution and decomposed back to taxol after a few hours

Structure (SMILES): CC(=O)O[C@H]1C(=O)[C@@]2(C)[C@H]([C@H](OC(=O)c3ccccc3)[C@]3(O)C[C@H](OC(=O)[C@H](O)[C@@H](NC(=O)c4ccccc4)c4ccccc4)C(C)=C1C3(C)C)[C@]1(OC(C)=O)CO[C@@H]1C[C@@H]2O [Taxol, taxol]
- activity in acute leukemia and melanoma [11]: marginal activity in acute leukemia and melanoma
- stability in base ([5]; base): readily hydrolyzed in base
- toxic effects in phase 1 clinical trials [12]: did not show excessive toxic effects
- Relative Solubility (water solubility relative to taxol) [7]: 1
- activity in tumor systems (several tumor systems): has shown activity in several tumor systems
- activity against drug-refractory ovarian cancer [13]: active agent against drug-refractory ovarian cancer
- effect on microtubule formation (tubulin): promotes formation of the microtubules
- effect on depolymerization of tubulin (tubulin; mitotic spindle microtubules): prevents depolymerization of the tubulin
- water solubility of taxol ([2]; background statement): low water solubility

Structure (SMILES): CC[C@]1(O)C[C@@H]2CN(CCc3c([nH]c4ccccc34)[C@@](C(=O)OC)(c3cc4c(cc3OC)N(C)[C@H]3[C@@](O)(C(=O)OC)[C@H](OC(C)=O)[C@]5(CC)C=CCN6CC[C@]43[C@@H]65)C2)C1 [vinblastine]
- effect on microtubule formation (tubulin): prevent microtubule formation
